Measured values taken from the NIST ThermoML archive (doi:10.1021/je900966r).

Experiments:
[1] = mn = molality of the nth substance listed, in mol/kg; details: 101 kPa, Liquid
[2] = refractive index (Na D-line) (dimensionless); mn = molality of the nth substance listed, in mol/kg; details: 298.15 K, 101 kPa, Liquid, Standard Abbe refractometry

OC[C@@H](O)[C@@H](O)[C@H](O)[C@H](O)CO [mannitol] + O
mass density [kg/m3], [1]
Details | m1 = 0.1 | m1 = 0.1499 | m1 = 0.1999 | m1 = 0.25 | m1 = 0.3 | m1 = 0.35 | m1 = 0.4
293.15 K | 1004.39 | 1007.5 | 1010.61 | 1013.69 | 1016.75 | 1019.74 | 1022.71
298.15 K | 1003.21 | 1006.3 | 1009.4 | 1012.46 | 1015.48 | 1018.46 | 1021.43
303.15 K | 1001.79 | 1004.87 | 1007.95 | 1010.98 | 1013.99 | 1016.97 | 1019.92
308.15 K | 1000.12 | 1003.19 | 1006.23 | 1009.26 | 1012.25 | 1015.19 | 1018.13
313.15 K | 998.283 | 1001.33 | 1004.36 | 1007.37 | 1010.33 | 1013.26 | 1016.18

[2]
Details | refractive index
m1 = 0.1 | 1.3358
m1 = 0.1499 | 1.337
m1 = 0.1999 | 1.3385
m1 = 0.25 | 1.3396
m1 = 0.3 | 1.341
m1 = 0.35 | 1.3422
m1 = 0.4 | 1.343

CCCO [propan-1-ol] + O
mass density [kg/m3], [1]
Details | m1 = 0.1001 | m1 = 0.15 | m1 = 0.2 | m1 = 0.3 | m1 = 0.4 | m1 = 0.5
293.15 K | 996.609 | 996.479 | 996.336 | 995.903 | 994.27 | 993.364
298.15 K | 995.441 | 995.293 | 995.163 | 994.694 | 993.072 | 992.148
303.15 K | 994.029 | 993.828 | 993.747 | 993.242 | 991.629 | 990.687
308.15 K | 992.397 | 992.237 | 992.113 | 991.569 | 989.962 | 989.004
313.15 K | 990.564 | 990.399 | 990.278 | 989.694 | 988.093 | 987.114

[2]
Details | refractive index
m1 = 0.1001 | 1.3331
m1 = 0.15 | 1.3338
m1 = 0.2 | 1.3341
m1 = 0.3 | 1.3344
m1 = 0.4 | 1.3349
m1 = 0.5 | 1.3353

CC(C)O [propan-2-ol] + O
mass density [kg/m3], [1]
Details | m1 = 0.1 | m1 = 0.1501 | m1 = 0.1999 | m1 = 0.3 | m1 = 0.3998 | m1 = 0.5
293.15 K | 996.544 | 995.924 | 995.4 | 994.591 | 993.922 | 993.065
298.15 K | 995.386 | 994.764 | 994.22 | 993.429 | 992.857 | 991.893
303.15 K | 993.986 | 993.358 | 992.795 | 992.018 | 991.441 | 990.472
308.15 K | 992.365 | 991.731 | 991.148 | 990.384 | 989.702 | 988.826
313.15 K | 990.542 | 989.901 | 989.299 | 988.545 | 987.816 | 986.979

[2]
Details | refractive index
m1 = 0.1 | 1.3329
m1 = 0.1501 | 1.3335
m1 = 0.1999 | 1.3338
m1 = 0.3 | 1.3341
m1 = 0.3998 | 1.3345
m1 = 0.5 | 1.335

O [water] + OC[C@@H](O)[C@@H](O)[C@H](O)[C@H](O)CO
Details | refractive index
[2], m2 = 0 | 1.3326
